Assay results reported in ChEMBL document CHEMBL3124761, “Synthesis and biological evaluation of N,N'-squaramides with high in vivo efficacy and low toxicity: toward a low-cost drug against Chagas disease” (J Med Chem, 2014).
The source made the active and inactive calls. No cut-off for these calls is given here.

Legend:
Mus musculus [1] = experiment: Toxicity in BALB/c albino mouse infected with blood trypomastigote stage of Trypanosoma cruzi assessed as increase in total bilirubin level in serum at 500 mg/kg, ip relative to control; format: organism-based; parameters: dose 500 mg/kg, route intraperitoneal; settings: in vivo
Mus musculus [2] = experiment: Toxicity in BALB/c albino mouse infected with blood trypomastigote stage of Trypanosoma cruzi assessed as increase in total bilirubin level in serum at 40 mg/kg, ip administered on day 7 to 12 post-infection measured after day 150 relative to control; format: organism-based; parameters: dose 40 mg/kg, route intraperitoneal; settings: in vivo
Mus musculus [3] = experiment: Toxicity in BALB/c albino mouse infected with blood trypomastigote stage of Trypanosoma cruzi assessed as increase in total bilirubin level in serum at 25 mg/kg, ip administered on day 7 to 12 post-infection measured after day 120 relative to control; format: organism-based; parameters: dose 25 mg/kg, route intraperitoneal; settings: in vivo
Mus musculus [4] = experiment: Toxicity in BALB/c albino mouse infected with blood trypomastigote stage of Trypanosoma cruzi assessed as increase in LDH level in serum at 25 mg/kg, ip administered on day 7 to 12 post-infection measured after day 120 relative to control; format: organism-based; parameters: dose 25 mg/kg, route intraperitoneal; settings: in vivo
Mus musculus [5] = experiment: Toxicity in BALB/c albino mouse infected with blood trypomastigote stage of Trypanosoma cruzi assessed as change in creatinephophokinase-MB level in serum at 25 mg/kg, ip administered on day 7 to 12 post-infection measured after day 120 relative to control; format: organism-based; parameters: dose 25 mg/kg, route intraperitoneal; settings: in vivo
Mus musculus [6] = experiment: Toxicity in BALB/c albino mouse infected with blood trypomastigote stage of Trypanosoma cruzi assessed as change in uric acid level in serum at 500 mg/kg, ip; format: organism-based; parameters: dose 500 mg/kg, route intraperitoneal; settings: in vivo
Mus musculus [7] = experiment: Toxicity in BALB/c albino mouse infected with blood trypomastigote stage of Trypanosoma cruzi assessed as increase in urea level in serum at 500 mg/kg, ip; format: organism-based; parameters: dose 500 mg/kg, route intraperitoneal; settings: in vivo
Trypanosoma cruzi [8] = experiment: Trypanocidal activity against blood trypomastigote stage of Trypanosoma cruzi infected in immunosuppressed BALB/c albino mouse chronic chagas disease model assessed as decrease in parasite burden in heart at 40 mg/kg, ip administered on day 7 to 12 post-infection measured on day 150 by PCR analysis relative to control; format: functional; parameters: scale not given: the % may be the effect or the level left; settings: route intraperitoneal
Trypanosoma cruzi [9] = experiment: Trypanocidal activity against blood trypomastigote stage of Trypanosoma cruzi infected in nonimmunosuppressed BALB/c albino mouse chronic chagas disease model assessed as increase in total Ig-G level at 40 mg/kg, ip administered on day 7 to 12 post-infection measured after day 150 by ELISA; format: functional, organism-based; parameters: dose 40 mg/kg
Trypanosoma cruzi [10] = experiment: Trypanocidal activity against metacyclic trypomastigote stage of Trypanosoma cruzi infected in BALB/c albino mouse acute chagas disease model assessed as inhibition of parasitemia at 25 mg/kg, ip administered on day 7 to 12 post-infection measured every 2 days until day 40 […] relative to control; format: functional; settings: route intraperitoneal
Trypanosoma cruzi [11] = experiment: Trypanocidal activity against metacyclic trypomastigote stage of Trypanosoma cruzi infected in BALB/c albino mouse acute chagas disease model assessed as reduction of parasite burden at 25 mg/kg, ip administered on day 7 to 12 post-infection measured on day 14 by ELISA; format: functional, organism-based; parameters: dose 25 mg/kg
Trypanosoma cruzi [12] = experiment: Antitrypanosomal activity against amastigote stage of Trypanosoma cruzi IRHOD/CO/2008/SN3 infected in African green monkey Vero cells assessed as reduction of amastigote number per cell at IC25 preincubated for 12 hrs followed by compound washout measured every 48 hrs for 10 days by Neubauer hemocytometric chamber analysis relative to control; format: functional
Trypanosoma cruzi [13] = experiment: Antitrypanosomal activity against amastigote stage of Trypanosoma cruzi IRHOD/CO/2008/SN3 infected in African green monkey Vero cells assessed as parasite growth inhibition after 72 hrs by Giemsa staining-based microscopic analysis; format: functional, organism-based; settings: IRHOD/CO/2008/SN3, Vero
Trypanosoma cruzi [14] = experiment: Antitrypanosomal activity against epimastigote stage of Trypanosoma cruzi IRHOD/CO/2008/SN3 assessed as mortality at IC25 after 72 hrs by TEM analysis; format: functional, organism-based
Trypanosoma cruzi [15] = experiment: Antitrypanosomal activity against epimastigote stage of Trypanosoma cruzi IRHOD/CO/2008/SN3 assessed as change in excreted acetate level at IC25 after 96 hrs by 1H NMR analysis relative to control; format: functional
Trypanosoma cruzi [16] = experiment: Antitrypanosomal activity against epimastigote stage of Trypanosoma cruzi IRHOD/CO/2008/SN3 assessed as change in excreted lactate level at IC25 after 96 hrs by 1H NMR analysis relative to control; format: functional
Mus musculus [17] = experiment: Toxicity in BALB/c albino mouse infected with blood trypomastigote stage of Trypanosoma cruzi assessed as increase in alkaline phosphatase level in serum at 500 mg/kg, ip relative to control; format: organism-based; parameters: dose 500 mg/kg, route intraperitoneal; settings: in vivo

Q: Which Activity (Mus musculus [1]) does the source give for `CCCCNc1c(N(C)CCCN(C)C)c(=O)c1=O` here?
A: Its Activity is 40%.

Q: What about the Activity (Mus musculus [2]) of the same compound?
A: Its Activity is 30%.

Q: And the Activity (Mus musculus [3])?
A: The Activity was 10%.

Q: What about the Activity (Mus musculus [4]) of the same compound?
A: The Activity was 10%.

Q: And the Activity (Mus musculus [5])?
A: Its Activity is less than 10%.

Q: And the Activity (Mus musculus [6])?
A: The Activity was less than 10%.

Q: What about the Activity (Mus musculus [7]) of the same compound?
A: Its Activity is 30%.

Q: And the Activity (Trypanosoma cruzi [8])?
A: Its Activity is 83.3%.

Q: And the Activity (Trypanosoma cruzi [9])?
A: The Activity was “Active”.

Q: And the inhibition in vivo at 25 mg/kg (Trypanosoma cruzi [10])?
A: Its inhibition in vivo at 25 mg/kg is 67%.

Q: And the Activity (Trypanosoma cruzi [11])?
A: The Activity was “Active”.

Q: And the “inhibition (INH)” value (Trypanosoma cruzi [12])?
A: Its value is 52%.

Q: What about the IC50 (Trypanosoma cruzi [13]) of the same compound?
A: The IC50 was 8.5 µM.

Q: And the Activity (Trypanosoma cruzi [14])?
A: The Activity was “Active”.

Q: And the Activity (Trypanosoma cruzi [15])?
A: Its Activity is -18.6%.

Q: And the Activity (Trypanosoma cruzi [16])?
A: Its Activity is -28.3%.

Q: What about the Activity (Mus musculus [17]) of the same compound?
A: The Activity was greater than 50%.
